Source: publication PMC4601023, “Novel anticancer agent, SQAP, binds to focal adhesion kinase and modulates its activity” (Scientific Reports, 2015)

Tests used:
[1] = molecular target: T1, ADRM1 (Homo sapiens, UniProt Q16186); assay: SPR analysis, immobilized full length His-ADRM1; assay type: binding; settings: Biacore 3000, CM5 chip, 25 °C, read-out: dissociation constant (KD) for ADRM1
T1 construct: ADRM1 and HR23B human full length proteins were purchased; His-tag; purchased ATgen (Gyeonggi-do, Korea)
Source text: SPR was utilized as an independent confirmation of the kinetic parameters between SQAP and the putative binding proteins. […] The recombinant proteins were then expressed in Escherichia coli and purified to homogeneity. In addition, full length, His-tagged ADRM1 and GST-tagged HR23B (GST-HR23B) were also used. The proteins were first immobilized on a CM5 sensor chip of the SPR biosensor (Biacore 3000). For GST-HR23B analysis, a GST protein was additionally immobilized and used as a control in order to eliminate possible nonspecific binding of SQAP. SQAP samples at different concentrations were then injected over the proteins immobilized on the sensor chip. As a negative control we used sulfoquynovosylpropanediol (SQP), which lacks the fatty acid moiety of SQAP (Fig. 1). […]
The binding kinetics of SCP-2, MFE-2, ADRM1, HR23B and FAK with SQAP and SQP were analyzed on a Biacore 3000 instrument (GE Healthcare, Little Chalfont, UK). […] The buffer of purified peptides was exchanged to HBS-P (150 mM NaCl, 0.005% Surfactant P20, 10 mM HEPES-NaOH pH 7.4) using a PD 10 column (GE Healthcare, Little Chalfont, UK) and the concentrations were quantified using DC protein assay kit (Bio-Rad Laboratories, Hercules, CA, USA). […] Kinetic parameters were determined by analyzing the data using BIAevaluation 4.1 software (GE Healthcare, Little Chalfont, UK).

[2] = tested on: FAK phosphorylation (Y397, Y925) in A549 cells; assay: FAK phosphorylation level in A549, Western blotting; assay type: cell-based, human; settings: A549, fibronectin 10 μg/mL, 1 h treatment
Method: A549 cells were incubated in a serum-free medium for 48 h in 60 mm dishes (IWAKI, Tokyo, Japan). Then 10 μM SQAP, SQMG or SQP was added and incubated for 30 min followed by addition of fibronectin 10 μg/mL (Sigma, St. Louis, MI, USA) and incubation for another 30 min. FAK phosphorylation level was analyzed by Western blotting as described in the next section.
Cells were harvested and solubilized in RIPA buffer (20 mM Tris-HCl, pH 7.5, 1% Sodium deoxycholate, 150 mM NaCl, 5 mM EDTA, 1% Triton X-100, 0.1% SDS, 0.1%, 1 mM PMSF, 1 mM vanadate and 1 μg/mL leupeptin). Protein quantification was determined using the DC protein assay kit (Bio-Rad, Hercules, CA, USA). A total of 15 μg of each protein sample were separated by SDS–PAGE gels and blotted onto polyvinylidene difluoride membranes (Merck, Kenilworth, NJ, US). After blocking for 1 h with Blocking-One (Nacalai Tesque, Kyoto, Japan), proteins were detected by incubating the membranes with the primary antibody at 4 °C overnight (anti-Y397 2:2000, anti-Y925 5:2000 and anti-FAK 0.5:2000) followed by incubation with horseradish peroxidase-conjugated secondary antibodies at room temperature for 1 h (anti-mouse 0.5:2000 and anti-rabbit 0.4:2000).

[3] = tested on: A549 cells; assay: Wound healing assay, A549; assay type: cell-based, human; settings: A549, 25 h, 1% FBS and fibronectin 10 μg/mL; control 46%
Method: (§1) Figure 6 SQAP inhibits cell migration in vitro. (A) HUVEC cells were seeded and grown to 100% confluence in 60-mm diameter dishes. After generating a single scratch in the monolayer, the cells were cultured for 11 h in medium containing 1% FBS and VEGF (50 ng/mL) in the presence or absence of SQAP. Photographs were taken immediately after 11 h. (B) The change in wound width was measured as described in the Materials and Methods. (C) A549 cells were seeded and grown to 100% confluence in 60-mm diameter dishes. After generating a single scratch in the monolayer, the cells cultured for the 25 h in media containing 1% FBS and fibronectin (10 μg/ml) treated with SQAP or vehicle. Photographs were collected immediately after wounding and after 25 h. (D) The change in wound width was measured as described in the Materials and Methods. Cell migration was additionally examined in 96 well plates. HUVEC (E) and A549 cells (F) were seeded and grown into confluence overnight. After removing the stoppers, the live cells were stained with CellTracker^TM Green and incubated for the indicated time. The fluorescent emission signal was obtained with a plate reader. […]
Wound healing assay was analyzed by microscope imaging. […] Wound diameters in the images were measured and percentage of wound size was calculated as follows: [wound diameter at 11 or 25 h/wound diameter at 0 h] x 100.

[4] = tested on: HUVEC cells; assay: In vitro cell migration assay (Oris kit), HUVEC; assay type: cell-based, human; settings: 96 well cell migration kit
Method: as §1, with “After removing the stoppers, the live cells were stained with CellTracker^TM Green and incubated for the indicated time.” left out
(§2) Wound healing was additionally assessed in HUVEC or A549 cells using a cell migration kit (Oris, Madison, WI, USA) as described by the manufacturer. […] The fluorescence emission signal in the migration zones was measured on a Wallac Arvo 5x microplate reader (Perkin Elmer, Waltham, MA, USA).

[5] = tested on: A549 cells; assay: In vitro cell migration assay (Oris kit), A549; assay type: cell-based, human; settings: A549, 96 well cell migration kit
Method: as §1, with “After removing the stoppers, the live cells were stained with CellTracker^TM Green and incubated for the indicated time.” left out
as §2

T1 sequence (Q16186 whole entry): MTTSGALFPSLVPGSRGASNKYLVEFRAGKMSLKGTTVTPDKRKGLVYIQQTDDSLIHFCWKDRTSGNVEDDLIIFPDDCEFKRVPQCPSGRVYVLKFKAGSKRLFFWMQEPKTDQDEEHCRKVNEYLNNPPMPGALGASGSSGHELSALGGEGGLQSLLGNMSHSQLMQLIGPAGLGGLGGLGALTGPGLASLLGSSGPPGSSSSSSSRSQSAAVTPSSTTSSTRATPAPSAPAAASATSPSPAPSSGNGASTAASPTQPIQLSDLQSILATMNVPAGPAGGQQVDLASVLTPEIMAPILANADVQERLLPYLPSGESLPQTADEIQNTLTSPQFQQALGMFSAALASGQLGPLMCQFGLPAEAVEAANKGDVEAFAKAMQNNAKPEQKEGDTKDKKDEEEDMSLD

CCCCCCCCCCCCCCCCCC(=O)OCCCO[C@H]1O[C@H](CS(=O)(=O)O)[C@@H](O)[C@H](O)[C@H]1O [SQAP, sulfoquynovosylacylpropanediol]
Kd [1]: 9.65 µM | phosphorylation of FAK at Y397 and Y925 [2]: could inhibit | wound size [3]: 68% | cell migration [4]: arrested | cell migration [5]: arrested
